{"source": "patent US20070199084A1", "about": "“Ubiquitination of Membrane Transporters” (VANDERBILT UNIVERSITY, priority 2005, published 2007)", "key": {"NET [1]": {"molecular_target": "T1, NET (Homo sapiens, UniProt P23975)", "T1 construct": "expressed in transfected cells; host or cells: CAD cells (transient, co-transfected with HA-Ub)", "T1 sequence (P23975 whole entry)": "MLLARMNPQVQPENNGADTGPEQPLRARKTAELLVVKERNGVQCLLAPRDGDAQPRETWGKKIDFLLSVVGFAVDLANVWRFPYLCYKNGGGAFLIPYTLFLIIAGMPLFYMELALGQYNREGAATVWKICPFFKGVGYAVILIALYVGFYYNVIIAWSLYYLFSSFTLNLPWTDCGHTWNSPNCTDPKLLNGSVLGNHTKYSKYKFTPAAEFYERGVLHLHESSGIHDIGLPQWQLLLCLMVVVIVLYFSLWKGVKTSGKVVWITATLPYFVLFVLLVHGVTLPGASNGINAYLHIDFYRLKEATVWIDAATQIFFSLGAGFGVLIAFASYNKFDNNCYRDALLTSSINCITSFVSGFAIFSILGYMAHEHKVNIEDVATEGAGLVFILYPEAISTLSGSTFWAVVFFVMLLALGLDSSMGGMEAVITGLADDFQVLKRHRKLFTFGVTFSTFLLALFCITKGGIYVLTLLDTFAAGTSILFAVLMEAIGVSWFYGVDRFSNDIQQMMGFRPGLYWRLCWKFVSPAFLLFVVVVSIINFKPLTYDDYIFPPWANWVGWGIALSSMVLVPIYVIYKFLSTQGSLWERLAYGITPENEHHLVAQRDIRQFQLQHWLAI", "test": "Ubiquitination of NET: IP with anti-HA (Ub), immunoblot with anti-NET, in transfected CAD cells", "assay_type": "cell-based", "conditions": "CAD cells transfected with NET and HA-Ub; 1 mM, pre-incubated 30 min at 37° C. before IP; vs vehicle", "procedure": "Prior to IP, cells were pre-incubated in media containing either vehicle (control), 1 mM PMA, or 1 mM methacholine (meth) for 30 min. PMA and methacholine increased ubiquitination of NET.\n(§1) Acute regulation of NET ubiquitination by PMA and methacholine (meth) was assessed. […] One mM PMA and 1 mM meth both increased ubiquitination of NET (FIG. 3). Chronic regulation of ubiquitination of NET was assessed in CAD cells transfected with NET and HA-Ub. […] FIGS. 5A-5B."}, "CAD cells": {"system": "CAD cells", "test": "Ponceau-S staining of the total membrane (other cellular proteins)", "conditions": "desipramine treatment for 3 days"}, "dopamine transporter": {"molecular_target": "T2, dopamine transporter (Canis lupus familiaris, UniProt A0A8I3S5A0)", "T2 construct": "digitonin-solubilized dopamine transporters from dog caudate nucleus; from tissue; host or cells: dog caudate nucleus, digitonin-solubilized extract", "T2 sequence (A0A8I3S5A0 1-617)": "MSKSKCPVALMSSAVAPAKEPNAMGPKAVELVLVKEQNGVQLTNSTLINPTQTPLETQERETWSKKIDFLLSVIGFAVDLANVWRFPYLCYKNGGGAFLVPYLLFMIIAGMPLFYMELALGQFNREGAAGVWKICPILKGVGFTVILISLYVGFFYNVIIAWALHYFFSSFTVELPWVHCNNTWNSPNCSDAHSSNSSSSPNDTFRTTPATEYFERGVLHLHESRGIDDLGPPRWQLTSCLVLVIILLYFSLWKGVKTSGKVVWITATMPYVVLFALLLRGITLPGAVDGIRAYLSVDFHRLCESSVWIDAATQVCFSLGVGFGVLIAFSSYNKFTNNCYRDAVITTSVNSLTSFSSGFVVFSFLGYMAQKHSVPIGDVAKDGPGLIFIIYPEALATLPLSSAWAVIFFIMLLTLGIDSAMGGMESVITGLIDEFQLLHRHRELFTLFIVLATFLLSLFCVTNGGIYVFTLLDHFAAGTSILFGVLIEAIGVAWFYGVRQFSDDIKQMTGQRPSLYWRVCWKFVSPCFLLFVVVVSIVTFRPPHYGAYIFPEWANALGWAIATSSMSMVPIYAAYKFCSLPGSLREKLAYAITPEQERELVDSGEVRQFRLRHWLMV", "conditions": "cited from earlier work"}, "hNET": {"system": "hNET", "test": "NE transport assay in CAD-his-hNET cells", "assay_type": "cell-based, human", "design": "dose or concentration left out as unconfirmed", "conditions": "incubated 0, 1, 4 and 24 hrs prior to NE transport assay; triplicates", "procedure": "FIG. 5A—Inhibition of proteasomes influence NET transport in cells. CAD-his-hNET cells in 24 well plates were incubated in MG132 ([…]) for 0, 1, 4 and 24 hrs prior to NE transport assay in triplicates.\nTransport Assay. CAD-his-hNET cells in 24 well plates were incubated in MG132 ([…]) for 0, 1, 4 and 24 hrs prior to NE transport assay in triplicates. Protein Assay. CAD cells transfected with NET and Ub were preincubated with MG132 for 4 hrs prior to cell lysis and immunoblot with anti-NET for protein analysis."}, "NET [2]": {"molecular_target": "T1, NET", "test": "NET proteins (total) by immunoblot with anti-NET in transfected CAD cells", "assay_type": "cell-based", "design": "dose or concentration left out as unconfirmed", "conditions": "CAD cells transfected with NET and Ub; preincubated 4 hrs prior to lysis", "procedure": "as §1"}, "[3]": {"conditions": "digitonin-solubilized extract of dog caudate"}}, "note": "Residues, ends and D or L forms follow the SMILES beside them. *: point of attachment. Cbz = O=C(OCc1ccccc1)*", "data": [{"compound": "CC(=O)OC(C)C[N+](C)(C)C", "note": "(stereo not shown) [meth, methacholine]", "values": [{"measurement": "ubiquitination of NET (acute regulation)", "setting": "NET [1]", "result": "increased"}]}, {"compound": "CNCCCN1c2ccccc2CCc2ccccc21", "note": "[Desipramine, desipramine]", "values": [{"measurement": "amounts of other cellular proteins (Ponceau-S stain of total membrane)", "setting": "CAD cells", "result": "no change"}, {"measurement": "inhibition of soluble [3H]WIN 35,428 binding (competition studies)", "setting": "dopamine transporter; [3]", "result": "weakly"}]}, {"compound": "OC1(c2ccc(Cl)cc2)c2ccccc2C2=NCCN21", "note": "(stereo not shown) [mazindol]", "values": [{"measurement": "inhibition of soluble [3H]WIN 35,428 binding (competition studies)", "setting": "dopamine transporter; [3]", "result": "strongly"}]}, {"compound": "COC(=O)C1C(OC(=O)c2ccccc2)CC2CCC1N2C", "note": "(single isomer, unassigned; (+)) [(+)-cocaine]", "values": [{"measurement": "inhibition of soluble [3H]WIN 35,428 binding (competition studies)", "setting": "dopamine transporter; [3]", "result": "weakly"}]}, {"compound": "CC(C)C[C@@H](C=O)NC(=O)[C@H](CC(C)C)NC(=O)[C@H](CC(C)C)NC(=O)OCc1ccccc1", "note": "[MG132] (Cbz-Leu-Leu-Leu-aldehyde)", "values": [{"measurement": "NET transport", "setting": "hNET", "result": "increase"}, {"measurement": "NET protein concentration", "setting": "NET [2]", "result": "increase"}]}, {"compound": "COC(=O)[C@H]1[C@@H](c2ccc(F)cc2)C[C@@H]2CC[C@H]1N2C", "note": "[[^3H]WIN 35,428]", "values": [{"measurement": "Kd", "setting": "dopamine transporter; digitonin-solubilized extract of dog caudate, read-out: Kd of binding", "result": 16, "unit": "nM"}]}, {"compound": "CCCCCCCCCCCCCC(=O)O[C@@H]1[C@@H](C)[C@@]2(O)[C@@H](C=C(CO)C[C@]3(O)C(=O)C(C)=C[C@@H]23)[C@@H]2C(C)(C)[C@]12OC(C)=O", "note": "[PMA]", "values": [{"measurement": "ubiquitination of NET (acute regulation)", "setting": "NET [1]", "result": "increased"}]}, {"compound": "(−)-cocaine", "values": [{"measurement": "potency compared to assays using [3H]GBR 12935", "setting": "dopamine transporter; competition against [3H]WIN 35,428", "result": "relatively more potent"}]}]}
